Assay results as given in US10562908B2, “Ortho substituted phenylpyrazolo- and phenylpyrrolo-pyridazine derivatives having multimodal activity against pain” (priority 2016, dated 2020).
Like-named read-outs stand apart in the source and are kept apart here.

How the values were obtained:
human μ-opioid receptor = biological target: T1, human μ-opioid receptor (Homo sapiens, UniProt P35372); experiment: Human μ-opioid receptor radioligand assay ([3H]-DAMGO); assay type: binding
T1 construct: expressed in transfected cells; host or cells: CHO-K1
Description: Human μ-Opioid Receptor Radioligand Assay
To investigate binding properties of test compounds to human μ-opioid receptor, transfected CHO-K1 cell membranes and [^3H]-DAMGO (Perkin Elmer, ES-542-C), as the radioligand, were used. The assay was carried out with 20 μg of membrane suspension, 1 nM of [^3H]-DAMGO in either absence or presence of either buffer or 10 μM Naloxone for total and non-specific binding, respectively. Binding buffer contained Tris-HCl 50 mM, MgCl2 5 mM at pH 7.4. Plates were incubated at 27° C. for 60 minutes. After the incubation period, the reaction mix was then transferred to MultiScreen HTS, FC plates (Millipore), filtered and plates were washed 3 times with ice-cold 10 mM Tris-HCL (pH 7.4). Filters were dried and counted at approximately 40% efficiency in a MicroBeta scintillation counter (Perkin-Elmer) using EcoScint liquid scintillation cocktail, preferably, transfected CHO-K1 cell membranes (20 μg) were incubated with 1 nM of [^3H]-DAMGO in assay buffer containing Tris-HCl 50 mM, MgCl2 5 mM at pH 7.4. NBS (non-specific binding) was measured by adding 10 μM Naloxone. The binding of the test compound was measured at five different concentrations. Plates were incubated at 27° C. for 60 minutes. After the incubation period, the reaction mix was then transferred to MultiScreen HTS, FC plates (Millipore), filtered and plates were washed 3 times with ice-cold 10 mM Tris-HCL (pH 7.4). Filters were dried and counted at approximately 40% efficiency in a MicroBeta scintillation counter (Perkin-Elmer) using EcoScint liquid scintillation cocktail.

[1] = biological target: Human α2δ-1 subunit of Cav2.2 calcium channel (Homo sapiens, UniProt P54289); experiment: Human α2δ-1 subunit of Cav2.2 calcium channel assay ([3H]-Gabapentin); assay type: binding
Description: Human α2δ-1 Subunit of Cav2.2 Calcium Channel Assay
Human α2δ-1 enriched membranes (2.5 μg) were incubated with 15 nM of radiolabeled [3H]-Gabapentin in assay buffer containing Hepes-KOH 10 mM, pH 7.4. NSB (non specific binding) was measured by adding 10 μM pregabalin. After 60 min incubation at 27° C., binding reaction was terminated by filtering through Multiscreen GF/C (Millipore) presoaked in 0.5% polyethyleneimine in Vacuum Manifold Station, followed by 3 washes with ice-cold filtration buffer containing 50 mM Tris-HCl, pH 7.4. Filter plates were dried at 60° C. for 1 hour and 30 μl of scintillation cocktail were added to each well before radioactivity reading. Readings were performed in a Trilux 1450 Microbeta radioactive counter (Perkin Elmer), i.e. Human α2δ-1 enriched membranes (2.5 μg) were incubated with 15 nM of radiolabeled [3H]-Gabapentin in assay buffer containing Hepes-KOH 10 mM, pH 7.4. NSB (non specific binding) was measured by adding 10 μM pregabalin. The binding of the test compound was measured at five different concentrations. After 60 min incubation at 27° C., binding reaction was terminated by filtering through Multiscreen GF/C (Millipore) presoaked in 0.5% polyethyleneimine in Vacuum Manifold Station, followed by 3 washes with ice-cold filtration buffer containing 50 mM Tris-HCl, pH 7.4. Filter plates were dried at 60° C. for 1 hour and 30 μl of scintillation cocktail were added to each well before radioactivity reading. Readings were performed in a Trilux 1450 Microbeta radioactive counter (Perkin Elmer).

[2] = transfected CHO-K1 cell membranes, 1 nM [3H]-DAMGO, read-out: Binding μ (Ki)
[3] = human α2δ-1 enriched membranes, 15 nM [3H]-Gabapentin, read-out: Binding α2δ-1 (Ki)

Human α2δ-1 subunit of Cav2.2 calcium channel, sequence (P54289 25-1103): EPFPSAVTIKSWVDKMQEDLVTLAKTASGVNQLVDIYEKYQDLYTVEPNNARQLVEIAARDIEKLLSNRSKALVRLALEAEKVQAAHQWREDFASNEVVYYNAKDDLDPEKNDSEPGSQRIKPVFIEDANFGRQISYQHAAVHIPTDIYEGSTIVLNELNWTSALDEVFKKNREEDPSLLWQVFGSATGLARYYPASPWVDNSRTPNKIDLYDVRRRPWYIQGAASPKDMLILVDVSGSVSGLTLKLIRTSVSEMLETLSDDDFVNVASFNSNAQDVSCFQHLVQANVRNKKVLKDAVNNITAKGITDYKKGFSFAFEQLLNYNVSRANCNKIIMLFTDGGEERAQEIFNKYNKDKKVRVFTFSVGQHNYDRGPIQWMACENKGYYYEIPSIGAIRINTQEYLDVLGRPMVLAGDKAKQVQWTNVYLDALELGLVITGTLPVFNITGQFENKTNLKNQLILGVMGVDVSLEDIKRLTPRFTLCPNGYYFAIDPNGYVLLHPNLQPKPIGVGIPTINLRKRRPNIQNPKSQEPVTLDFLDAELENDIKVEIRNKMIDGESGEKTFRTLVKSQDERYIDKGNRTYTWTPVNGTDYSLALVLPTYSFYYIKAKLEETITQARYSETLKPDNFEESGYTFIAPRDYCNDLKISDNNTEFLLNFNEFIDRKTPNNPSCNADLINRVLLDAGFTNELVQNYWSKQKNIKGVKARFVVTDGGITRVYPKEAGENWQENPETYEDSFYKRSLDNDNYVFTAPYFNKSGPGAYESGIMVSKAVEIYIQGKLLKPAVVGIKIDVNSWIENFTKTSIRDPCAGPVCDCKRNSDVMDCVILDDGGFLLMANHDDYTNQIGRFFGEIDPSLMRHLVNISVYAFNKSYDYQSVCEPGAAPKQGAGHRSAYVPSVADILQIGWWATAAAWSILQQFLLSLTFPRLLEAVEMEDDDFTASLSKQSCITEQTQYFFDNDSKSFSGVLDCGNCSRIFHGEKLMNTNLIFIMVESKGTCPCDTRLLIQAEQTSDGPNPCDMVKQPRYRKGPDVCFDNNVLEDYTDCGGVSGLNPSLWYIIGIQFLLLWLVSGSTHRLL
T1 sequence (P35372 whole entry): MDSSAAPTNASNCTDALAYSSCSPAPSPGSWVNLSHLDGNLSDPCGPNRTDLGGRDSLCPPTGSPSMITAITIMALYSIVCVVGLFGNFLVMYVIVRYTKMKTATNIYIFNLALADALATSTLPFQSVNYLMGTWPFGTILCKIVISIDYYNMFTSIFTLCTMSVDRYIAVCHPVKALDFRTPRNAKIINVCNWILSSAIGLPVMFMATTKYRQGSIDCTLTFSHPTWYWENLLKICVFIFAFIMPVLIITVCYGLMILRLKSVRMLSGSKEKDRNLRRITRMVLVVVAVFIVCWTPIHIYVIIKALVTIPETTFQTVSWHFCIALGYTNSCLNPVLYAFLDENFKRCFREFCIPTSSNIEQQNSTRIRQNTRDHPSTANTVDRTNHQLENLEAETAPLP

SMILES	Ki (human μ-opioid receptor; [2]) [nM]	Ki [1, 3] [nM]	Ki (human μ-opioid receptor) [nM]	Ki [1] [nM]
CNCCC(Oc1cc(Br)ccc1-n1nc2c(N(C)C)nnc(C)c2c1C)c1ccccc1 (centres unmarked) [Example 25, 2-(4-bromo-2-(3-(methylamino)-1-phenylpropoxy)phenyl)-N,N,3,4-tetramethyl-2H-pyrazolo[3,4-d]pyridazin-7-amine]	> 500	500 to 5000		
COCCNCCC(Oc1ccccc1-n1nc2c(N(C)C)nnc(C)c2c1C)c1ccccc1 (centres unmarked) [Example 26, 2-(2-(3-((2-methoxyethyl)amino)-1-phenylpropoxy)phenyl)-N,N,3,4-tetramethyl-2H-pyrazolo[3,4-d]pyridazin-7-amine]	> 500	500 to 5000		
Cc1nnc(N(C)C)c2nn(-c3ccccc3OC(CCNC3CC3)c3ccccc3)c(C)c12 (centres unmarked) [Example 27, 2-(2-(3-(cyclopropylamino)-1-phenylpropoxy)phenyl)-N,N,3,4-tetramethyl-2H-pyrazolo[3,4-d]pyridazin-7-amine]			100 to 500	500 to 5000
CNCCC(Oc1ccc(Br)cc1-n1nc2c(N(C)C)nnc(C)c2c1C)c1ccccc1 (centres unmarked) [Example 28, 2-(5-bromo-2-(3-(methylamino)-1-phenylpropoxy)phenyl)-N,N,3,4-tetramethyl-2H-pyrazolo[3,4-d]pyridazin-7-amine]	> 500	500 to 5000		
Cc1nnc(N(C)C)c2nn(-c3ccccc3OCC3NCCc4ccccc43)c(C)c12 (centres unmarked) [Example 29, N,N,3,4-tetramethyl-2-(2-((1,2,3,4-tetrahydroisoquinolin-1-yl)methoxy)phenyl)-2H-pyrazolo[3,4-d]pyridazin-7-amine]	> 500	500 to 5000		
Cc1nnc(N(C)C)c2nn(-c3ccccc3OCC3CNCc4ccccc43)c(C)c12 (centres unmarked) [Example 30, N,N,3,4-tetramethyl-2-(2-((1,2,3,4-tetrahydroisoquinolin-4-yl)methoxy)phenyl)-2H-pyrazolo[3,4-d]pyridazin-7-amine]	> 500	> 5000		
Cc1nnc(N(C)C)c2nn(-c3ccccc3OCCCNCCc3ccccc3)c(C)c12 [Example 31, N,N,3,4-tetramethyl-2-(2-(3-(phenethylamino)propoxy)phenyl)-2H-pyrazolo[3,4-d]pyridazin-7-amine]	> 500	500 to 5000		
Cc1nnc(N(C)C)c2nn(-c3ccccc3OC3CNCc4ccccc43)c(C)c12 (centres unmarked) [Example 32, N,N,3,4-tetramethyl-2-(2-((1,2,3,4-tetrahydroisoquinolin-4-yl)oxy)phenyl)-2H-pyrazolo[3,4-d]pyridazin-7-amine]	> 500	500 to 5000		
CNCCC(Oc1ccccc1-n1nc2c(N(C)C)nnc(C)c2c1C)c1nccs1 (centres unmarked) [Example 33, N,N,3,4-tetramethyl-2-(2-(3-(methylamino)-1-(thiazol-2-yl)propoxy)phenyl)-2H-pyrazolo[3,4-d]pyridazin-7-amine]	> 500	500 to 5000		
Cc1nnc(N(C)C)c2nn(-c3ccccc3OC(c3ccccc3)C3CNC3)c(C)c12 (centres unmarked) [Example 34, 2-(2-(azetidin-3-yl(phenyl)methoxy)phenyl)-N,N,3,4-tetramethyl-2H-pyrazolo[3,4-d]pyridazin-7-amine]	> 500	500 to 5000		
CNCCC(Oc1ccccc1-n1nc2c(N3CC(OC)C3)nnc(C)c2c1C)c1ccccc1 (centres unmarked) [Example 35, 3-(2-(7-(3-methoxyazetidin-1-yl)-3,4-dimethyl-2H-pyrazolo[3,4-d]pyridazin-2-yl)phenoxy)-N-methyl-3-phenylpropan-1-amine]	> 500	500 to 5000		
CNCCC(Oc1ccccc1-n1nc2c(N3CCCC3)nnc(C)c2c1C)c1ccccc1 (centres unmarked) [Example 36, 3-(2-(3,4-dimethyl-7-(pyrrolidin-1-yl)-2H-pyrazolo[3,4-d]pyridazin-2-yl)phenoxy)-N-methyl-3-phenylpropan-1-amine]	> 500	500 to 5000		
CCN(C)c1nnc(C)c2c(C)n(-c3ccccc3OC(CCNC)c3ccccc3)nc12 (centres unmarked) [Example 37, N-ethyl-N,3,4-trimethyl-2-(2-(3-(methylamino)-1-phenylpropoxy)phenyl)-2H-pyrazolo[3,4-d]pyridazin-7-amine]			100 to 500	500 to 5000
Cc1nnc(N(C)C)c2nn(-c3ccccc3OC(CCN)c3ccccc3)c(C)c12 (centres unmarked) [Example 38, 2-(2-(3-amino-1-phenylpropoxy)phenyl)-N,N,3,4-tetramethyl-2H-pyrazolo[3,4-d]pyridazin-7-amine]	> 500	500 to 5000		
CNCCC(Oc1ccccc1-n1nc2c(N3CCC3)nnc(C)c2c1C)c1ccccc1 (centres unmarked) [Example 39, 3-(2-(7-(azetidin-1-yl)-3,4-dimethyl-2H-pyrazolo[3,4-d]pyridazin-2-yl)phenoxy)-N-methyl-3-phenylpropan-1-amine]	> 500	500 to 5000		
CNCCCOc1ccccc1-n1nc2c(N(C)Cc3ccccc3)nnc(C)c2c1C [Example 40, N-benzyl-N,3,4-trimethyl-2-(2-(3-(methylamino)propoxy)phenyl)-2H-pyrazolo[3,4-d]pyridazin-7-amine]	> 500	500 to 5000		
CNCCC(Oc1ccccc1-n1nc2c(N(C)C)nnc(C)c2c1C)c1ccccc1F (centres unmarked) [Example 41, 2-(2-(1-(2-fluorophenyl)-3-(methylamino)propoxy)phenyl)-N,N,3,4-tetramethyl-2H-pyrazolo[3,4-d]pyridazin-7-amine]	> 500	500 to 5000		
CNCCC(Oc1ccccc1-n1nc2c(N(C)C)nnc(C)c2c1C)c1ccc(F)cc1 (centres unmarked) [Example 42, 2-(2-(1-(4-fluorophenyl)-3-(methylamino)propoxy)phenyl)-N,N,3,4-tetramethyl-2H-pyrazolo[3,4-d]pyridazin-7-amine]			> 500	< 500
COCC(CCN(C)Cc1ccccc1)Oc1ccccc1-n1nc2c(N(C)C)nnc(C)c2c1C (centres unmarked) [Example 43, 2-(2-((4-(benzyl(methyl)amino)-1-methoxybutan-2-yl)oxy)phenyl)-N,N,3,4-tetramethyl-2H-pyrazolo[3,4-d]pyridazin-7-amine]	> 500	500 to 5000		
CNCCC(Oc1ccccc1-n1nc2c(N(C)C)nnc(C)c2c1C)c1cccc(F)c1 (centres unmarked) [Example 44, 2-(2-(1-(3-fluorophenyl)-3-(methylamino)propoxy)phenyl)-N,N,3,4-tetramethyl-2H-pyrazolo[3,4-d]pyridazin-7-amine]			100 to 500	< 500
CNCc1cccc(COc2ccccc2-n2nc3c(N(C)C)nnc(C)c3c2C)c1 [Example 45, N,N,3,4-tetramethyl-2-(2-((3-((methylamino)methyl)benzyl)oxy)phenyl)-2H-pyrazolo[3,4-d]pyridazin-7-amine]	> 500	500 to 5000		
CNCCCC(Oc1ccccc1-n1nc2c(N(C)C)nnc(C)c2c1C)c1ccccc1 (centres unmarked) [Example 46, N,N,3,4-tetramethyl-2-(2-(4-(methylamino)-1-phenylbutoxy)phenyl)-2H-pyrazolo[3,4-d]pyridazin-7-amine]	> 500	500 to 5000		
CCNCCC(Oc1ccccc1-n1nc2c(N(C)C)nnc(C)c2c1C)c1cccc(F)c1 (centres unmarked) [Example 47, 2-(2-(3-(ethylamino)-1-(3-fluorophenyl)propoxy)phenyl)-N,N,3,4-tetramethyl-2H-pyrazolo[3,4-d]pyridazin-7-amine]			100 to 500	< 500
CNCCC(Oc1ccccc1-n1nc2c(N(C)C)nnc(C)c2c1C)c1cc(F)cc(F)c1 (centres unmarked) [Example 48, 2-(2-(1-(3,5-difluorophenyl)-3-(methylamino)propoxy)phenyl)-N,N,3,4-tetramethyl-2H-pyrazolo[3,4-d]pyridazin-7-amine]	> 500	500 to 5000		
Cc1nnc(N(C)C)c2nn(-c3ccccc3O[C@H](c3ccccc3)[C@@H]3CNCCO3)c(C)c12 [Example 49, N,N,3,4-tetramethyl-2-(2-((R)-((S)-morpholin-2-yl)(phenyl)methoxy)phenyl)-2H-pyrazolo[3,4-d]pyridazin-7-amine]	> 500	500 to 5000		
